The assay addresses T1, human β3-AR (Homo sapiens, UniProt P13945).
T1 construct: expressed in transfected cells; host or cells: CHO (Chinese hamster ovary) cells, stably transfected
Briefly: cAMP functional agonist assay (LANCE TR-FRET) in CHO cells expressing cloned human β3-AR. As to conditions: for EC50: CHO cells stably expressing cloned human β3-adrenoceptor, cAMP release, read-out: Human β3-AR Agonism EC50; for Human β3-AR Agonist Activity (%): percent maximum activation relative to isoproterenol; for Fold drop in potency vs. 2-chloropyridine analog: EC50 of comparative example divided by EC50 of corresponding 2-chloropyridine compound. The class given is cell-based. The procedure: The ability of compounds to activate the human β3-AR receptor was measured using a CHO cell line stably expressing the cloned human β1-, β2-, and β3-adrenoceptors (β-AR). […] To quantify the amount of cAMP released following β-AR activation, the LANCE cAMP kit (Perking Elmer), a time-resolved fluorescence resonance energy transfer immunoassay, was used. Compounds were serially diluted in DMSO and an aliquot added to either 384-well or 96-well micro titer plates in assay buffer (5 mM HEPES, 0.1% BSA in Hank's Balanced Salt Solution). […] Following 30 min incubation at room temperature, the cells were lysed by the addition of LANCE detection buffer which contained a europium-labeled cAMP tracer. Fluorescence was measured following one hour incubation at room temperature using a Perking Elmer Envision plate reader, exciting at 340 nm and measuring emission at 615 nm and 665 nm. For each assay, a cAMP standard curve was included and used to convert fluorescence readings directly to cAMP amounts. The values were then normalized to isoproterenol, a known full agonist of β-AR, which was titrated in every assay and the EC50 determined using a custom in-house data analysis package. Along with EC50, the percent maximum activation relative to isoproterenol is reported.
The cAMP production is measured using a homogenous time-resolved fluorescence resonance energy transfer immunoassay (LANCE™, Perkin Elmer) according to the manufacture's instructions. Chinese hamster ovary (CHO) cells, stably transfected with the cloned β-adrenergic receptor (β1, β2 or β3) are harvested after 3 days of subculturing. Harvesting of cells is done with Enzyme-free Dissociation Media (Specialty Media). Cells are then counted and resuspended in assay buffer (Hank's Balanced salt solution supplemented with 5 mM HEPES, […]) containing a phosphodiesterase inhibitor (IBMX, 0.6 mM). The reaction is initiated by mixing 6,000 cells in 6 μL with 6 μL Alexa Fluor labeled cAMP antibody (LANCE™ kit) which is then added to an assay well containing 12 μL of compound (diluted in assay buffer to 2× final concentration). The reaction proceeds for 30 minutes at RT and is terminated by the addition of 24 ul detection buffer (LANCE™ kit). The assay plate is then incubated for 1 h at RT and time-resolved fluorescence measured on a Perkin Elmer Envision reader or equivalent. The unknown cAMP level is determined by comparing fluorescence levels to a cAMP standard curve.
The non-selective, full agonist β-adrenergic ligand isoproterenol is used at all three receptors to determine maximal stimulation. […] Data are analyzed using Microsoft Excel and Graphpad Prism or an internally developed data analysis software package. […]

From patent US20160235727A1, “NOVEL PYRROLIDINE DERIVED BETA 3 ADRENERGIC RECEPTOR AGONISTS” (Merck Sharp & Dohme Corp., priority 2013, published 2016) come the findings set out here.

T1 sequence (P13945 whole entry): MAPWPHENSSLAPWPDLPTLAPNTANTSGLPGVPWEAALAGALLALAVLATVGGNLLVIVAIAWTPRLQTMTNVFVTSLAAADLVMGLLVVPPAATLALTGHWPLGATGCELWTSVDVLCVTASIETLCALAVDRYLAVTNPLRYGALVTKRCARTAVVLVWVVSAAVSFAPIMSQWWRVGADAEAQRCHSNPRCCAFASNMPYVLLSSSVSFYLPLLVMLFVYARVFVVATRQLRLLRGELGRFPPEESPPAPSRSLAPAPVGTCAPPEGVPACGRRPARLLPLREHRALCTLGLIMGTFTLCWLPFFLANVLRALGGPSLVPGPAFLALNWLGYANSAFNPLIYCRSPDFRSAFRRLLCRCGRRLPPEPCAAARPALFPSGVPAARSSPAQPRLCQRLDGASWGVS

Regarding `CN(Cc1ccc(=O)[nH]c1)C(=O)c1ccc(C[C@@H]2CC[C@H]([C@H](O)c3ccc(Cl)nc3)N2)cc1` [Example 28-A, 4-(((2S,5R)-5-((R)-(6-chloropyridin-3-yl)(hydroxy)methyl)pyrrolidin-2-yl)methyl)-N-methyl-N-((6-oxo-1,6-dihydropyridin-3-yl)methyl)benzamide], the EC50 amounted to 175 nM and the “Human β3-AR Agonist Activity (%)” value is 87%.
Regarding `COc1ccc([C@@H](O)[C@H]2CC[C@@H](Cc3ccc(C(=O)N(C)Cc4cccnc4)cc3)N2)cn1` [Example 21-P, 4-(((2S,5R)-5-((R)-hydroxy(6-methoxypyridin-3-yl)methyl)pyrrolidin-2-yl)methyl)-N-methyl-N-(pyridin-3-ylmethyl)benzamide], the EC50 amounted to 24 nM, the “Fold drop in potency vs. 2-chloropyridine analog” value was found to be 5.7 fold and the “Human β3-AR Agonist Activity (%)” value was determined as 93%.
On the same counts, the results for `COC(C)CN(C)C(=O)c1ccc(C[C@@H]2CC[C@H]([C@H](O)c3ccccc3)N2)cc1` (mixture of isomers) [Example 2-B, 4-(((2S,5R)-5-((R)-hydroxy(phenyl)methyl)pyrrolidin-2-yl)methyl)-N-(2-methoxypropyl)-N-methylbenzamide] are 168 nM, 1.4 fold and 94%.
The like results for `CN(Cc1cccnc1)C(=O)c1ccc(C[C@@H]2CC[C@H]([C@H](O)c3ccc(C4CC4)nc3)N2)cc1` [Example 21-I, 4-(((2S,5R)-5-((R)-(6-cyclopropylpyridin-3-yl)(hydroxy)methyl)pyrrolidin-2-yl)methyl)-N-methyl-N-(pyridin-3-ylmethyl)benzamide] were, in that order, 19 nM, 4.4 fold and 71%.
The like results for `Cc1cc(C(Cc2ccccc2)N(C)C(=O)c2ccc(C[C@@H]3CC[C@H]([C@H](O)c4cccnc4)N3)cc2)[nH]n1` (stereo partly drawn) [Example 6-H, 4-(((2S,5R)-5-((R)-hydroxy(pyridin-3-yl)methyl)pyrrolidin-2-yl)methyl)-N-methyl-N-(1-(5-methyl-1H-pyrazol-3-yl)-2-phenylethyl)benzamide] were, in that order, 7 nM, 2.4 fold and 92%.
On to `CN(Cc1cccnc1F)C(=O)c1ccc(C[C@@H]2CC[C@H]([C@H](O)c3cccc(F)c3)N2)cc1` [Example 26-C, 4-(((2S,5R)-5-((R)-(3-fluorophenyl)(hydroxy)methyl)pyrrolidin-2-yl)methyl)-N-((2-fluoropyridin-3-yl)methyl)-N-methylbenzamide], for which the half-maximal effective concentration (EC50) came to 143 nM, the “Fold drop in potency vs. 2-chloropyridine analog” value was 4.1 fold and the “Human β3-AR Agonist Activity (%)” value is given as 98%.
On to `CCN(Cc1cccnc1)C(=O)c1ccc(C[C@@H]2CC[C@H]([C@H](O)c3ccccc3)N2)cc1` [Example 22-B, N-ethyl-4-(((2S,5R)-5-((R)-hydroxy(phenyl)methyl)pyrrolidin-2-yl)methyl)-N-(pyridin-3-ylmethyl)benzamide], for which the EC50 is 10 nM, the “Fold drop in potency vs. 2-chloropyridine analog” value was determined as 2.0 fold and the “Human β3-AR Agonist Activity (%)” value stood at 103%.
For `CCc1[nH]nc(CN(C)C(=O)c2ccc(C[C@@H]3CC[C@H]([C@H](O)c4ccccc4)N3)cc2)c1C` [Example 12-B, N-((5-ethyl-4-methyl-1H-pyrazol-3-yl)methyl)-4-(((2S,5R)-5-((R)-hydroxy (phenyl)methyl)pyrrolidin-2-yl)methyl)-N-methylbenzamide], the EC50 is 18 nM, the “Fold drop in potency vs. 2-chloropyridine analog” value is listed as 1.5 fold and the “Human β3-AR Agonist Activity (%)” value is on record as 120%.
On the same counts, the results for `COCc1cc(CN(C)C(=O)c2ccc(C[C@@H]3CC[C@H]([C@H](O)c4ccc(Cl)cc4)N3)cc2)n[nH]1` [Example 9-G, 4-(((2S,5R)-5-((R)-(4-chlorophenyl)(hydroxy)methyl)pyrrolidin-2-yl)methyl)-N-((5-(methoxymethyl)-1H-pyrazol-3-yl)methyl)-N-methylbenzamide] are 4 nM, 1.6 fold and 97%.
In the case of `COCCN(C)C(=O)c1ccc(C[C@@H]2CC[C@H]([C@H](O)c3ccc(Cl)nc3)N2)cc1` [Example 1-A], the EC50 came to 96 nM and the “Human β3-AR Agonist Activity (%)” value is on record as 100%.
As for `CN(Cc1cccnc1)C(=O)c1ccc(C[C@@H]2CC[C@H]([C@H](O)c3cccc(Cl)c3)N2)cc1` [Example 21-D, 4-(((2S,5R)-5-((R)-(3-chlorophenyl)(hydroxy)methyl)pyrrolidin-2-yl)methyl)-N-methyl-N-(pyridin-3-ylmethyl)benzamide], the EC50 was found to be 120 nM, the “Fold drop in potency vs. 2-chloropyridine analog” value came to 28.2 fold and the “Human β3-AR Agonist Activity (%)” value is 97%.
Take `CN(Cc1nc2ccccc2c(=O)n1C)C(=O)c1ccc(C[C@@H]2CC[C@H]([C@H](O)c3ccccc3)N2)cc1` [Example 45-B, 4-(((2S,5R)-5-((R)-hydroxy(phenyl)methyl)pyrrolidin-2-yl)methyl)-N-methyl-N-((3-methyl-4-oxo-3,4-dihydroquinazolin-2-yl)methyl)benzamide]: the EC50 turned out to be 65 nM, the “Fold drop in potency vs. 2-chloropyridine analog” value is on record as 2.6 fold and the “Human β3-AR Agonist Activity (%)” value stood at 81%.
On the same counts, the results for `CN(Cc1cc(C(F)(F)F)[nH]n1)C(=O)c1ccc(C[C@@H]2CC[C@H]([C@H](O)c3ccccc3)N2)cc1` [Example 10-B, 4-(((2S,5R)-5-((R)-hydroxy(phenyl)methyl)pyrrolidin-2-yl)methyl)-N-methyl-N-((5-(trifluoromethyl)-1H-pyrazol-3-yl)methyl)benzamide] are 5 nM, 3.2 fold and 110%.
In the case of `CN(Cc1cncc(C(=O)O)c1)C(=O)c1ccc(C[C@@H]2CC[C@H]([C@H](O)c3ccccc3)N2)cc1` [Example 33-B, 5-((4-(((2S,5R)-5-((R)-hydroxy(phenyl)methyl)pyrrolidin-2-yl)methyl)-N-methylbenzamido)methyl)nicotinic acid], the EC50 stood at 87 nM, the “Fold drop in potency vs. 2-chloropyridine analog” value came out at 87.0 fold and the “Human β3-AR Agonist Activity (%)” value was 111%.
With `CN(Cc1cc(C2CC2)[nH]n1)C(=O)c1ccc(C[C@@H]2CC[C@H]([C@H](O)c3ccccc3)N2)cc1` [Example 8-B, N-((5-cyclopropyl-1H-pyrazol-3-yl)methyl)-4-(((2S,5R)-5-((R)-hydroxy(phenyl)methyl)pyrrolidin-2-yl)methyl)-N-methylbenzamide], the EC50 stood at 39 nM, the “Fold drop in potency vs. 2-chloropyridine analog” value is recorded as 2.0 fold and the “Human β3-AR Agonist Activity (%)” value turned out to be 103%.
Consider `CN(Cc1nc2ccsc2c(=O)[nH]1)C(=O)c1ccc(C[C@@H]2CC[C@H]([C@H](O)c3ccccc3)N2)cc1` [Example 44-B, 4-(((2S,5R)-5-((R)-hydroxy(phenyl)methyl)pyrrolidin-2-yl)methyl)-N-methyl-N-((4-oxo-3,4-dihydrothieno[3,2-d]pyrimidin-2-yl)methyl)benzamide], for which the EC50 was found to be 4 nM, the “Fold drop in potency vs. 2-chloropyridine analog” value was 1.7 fold and the “Human β3-AR Agonist Activity (%)” value worked out at 97%.
The like results for `Cc1nnc(-c2cncc(CN(C)C(=O)c3ccc(C[C@@H]4CC[C@H]([C@H](O)c5ccccc5)N4)cc3)c2)o1` [Example 36-B, 4-(((2S,5R)-5-((R)-hydroxy(phenyl)methyl)pyrrolidin-2-yl)methyl)-N-methyl-N-((5-(5-methyl-1,3,4-oxadiazol-2-yl)pyridin-3-yl)methyl)benzamide] were, in that order, 59 nM, 4.3 fold and 101%.
In the case of `O=C(c1ccc(C[C@@H]2CC[C@H]([C@H](O)c3cccnc3)N2)cc1)N(CCO)Cc1cccnc1F` [Example 27-H, N-((2-fluoropyridin-3-yl)methyl)-4-(((2S,5R)-5-((R)-hydroxy(pyridin-3-yl)methyl)pyrrolidin-2-yl)methyl)-N-(2-hydroxyethyl)benzamide], the EC50 amounted to 1390 nM, the “Fold drop in potency vs. 2-chloropyridine analog” value worked out at 288.6 fold and the “Human β3-AR Agonist Activity (%)” value was 78%.

As usually defined, the EC50 is the midpoint of the concentration-response curve.
